Assay results reported in the supplement of paper PMC10307832.

Key:
Test in all cases: relative viability (nuclei count vs DMSO), 5 days (fraction); higher = more cells survive
AZD8055 + Dasatinib = compound: COc1ccc(-c2ccc3c(N4CCOC[C@@H]4C)nc(N4CCOC[C@@H]4C)nc3n2)cc1CO [AZD8055] + Cc1nc(Nc2ncc(C(=O)Nc3c(C)cccc3Cl)s2)cc(N2CCN(CCO)CC2)n1 [Dasatinib] (partner 0.075 µM)
How it was run: (§1)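 Relative viability is defined as nuclei in treated wells over nuclei in vehicle wells. Duplicate plates were run and medians reported. Lung cancer cell lines in 1536-well plates were dosed by pin tool one day after seeding, with one drug or with a fixed anchor-drug dose plus five library-drug doses (not always all listed) in √10 steps, and nuclei were counted after 5 days.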

AZD8055 + Luminespib = compound: COc1ccc(-c2ccc3c(N4CCOC[C@@H]4C)nc(N4CCOC[C@@H]4C)nc3n2)cc1CO [AZD8055] + CCNC(=O)c1noc(-c2cc(C(C)C)c(O)cc2O)c1-c1ccc(CN2CCOCC2)cc1 [Luminespib] (partner 0.01 µM)
How it was run: as §1

AZD8055 + Alpelisib = compound: COc1ccc(-c2ccc3c(N4CCOC[C@@H]4C)nc(N4CCOC[C@@H]4C)nc3n2)cc1CO [AZD8055] + Cc1nc(NC(=O)N2CCC[C@H]2C(N)=O)sc1-c1ccnc(C(C)(C)C(F)(F)F)c1 [Alpelisib] (partner 2 µM)
How it was run: as §1

AZD8055 + Tozasertib = compound: COc1ccc(-c2ccc3c(N4CCOC[C@@H]4C)nc(N4CCOC[C@@H]4C)nc3n2)cc1CO [AZD8055] + Cc1cc(Nc2cc(N3CCN(C)CC3)nc(Sc3ccc(NC(=O)C4CC4)cc3)n2)n[nH]1 [Tozasertib] (partner 0.1 µM)
How it was run: as §1

Cell Line	relative viability (AZD8055 + Dasatinib; first compound 0.01 µM)	relative viability (AZD8055 + Dasatinib; first compound 0.03162 µM)	relative viability (AZD8055 + Dasatinib; first compound 0.1 µM)	relative viability (AZD8055 + Dasatinib; first compound 0.3162 µM)	relative viability (AZD8055 + Dasatinib; first compound 1 µM)	relative viability (AZD8055 + Luminespib; first compound 0.01 µM)	relative viability (AZD8055 + Luminespib; first compound 0.03162 µM)	relative viability (AZD8055 + Luminespib; first compound 0.1 µM)	relative viability (AZD8055 + Luminespib; first compound 0.3162 µM)	relative viability (AZD8055 + Luminespib; first compound 1 µM)	relative viability (AZD8055 + Alpelisib; first compound 0.01 µM)	relative viability (AZD8055 + Alpelisib; first compound 0.03162 µM)	relative viability (AZD8055 + Alpelisib; first compound 0.1 µM)	relative viability (AZD8055 + Alpelisib; first compound 0.3162 µM)	relative viability (AZD8055 + Alpelisib; first compound 1 µM)	relative viability (AZD8055 + Tozasertib; first compound 0.01 µM)	relative viability (AZD8055 + Tozasertib; first compound 0.03162 µM)	relative viability (AZD8055 + Tozasertib; first compound 0.1 µM)	relative viability (AZD8055 + Tozasertib; first compound 0.3162 µM)	relative viability (AZD8055 + Tozasertib; first compound 1 µM)
NCI-H1355	0.551	0.443	0.435	0.218	0.263	0.601	0.369	0.234	0.238	0.206	0.677	0.472	0.332	0.215	0.222	0.483	0.5	0.399	0.278	0.228
NCI-H1395	0.405	0.376	0.37	0.31	0.292	0.669	0.379	0.684	0.445	0.36	1.09	0.809	0.691	0.612	0.504	0.752	0.581	0.562	0.488	0.44
NCI-H1437	0.498	0.444	0.275	0.187	0.124	1.28	1.26	1.23	0.775	0.365	0.802	0.808	0.697	0.178	0.159	0.437	0.458	0.496	0.373	0.238
NCI-H1651	0.455	0.368	0.307	0.226	0.253	0.925	0.798	0.779	0.412	0.313	1.04	0.716	0.671	0.405	0.325	0.695	0.64	0.694	0.414	0.317
NCI-H1666	0.928	0.853	0.739	0.698	0.579	1.06	1.03	0.977	0.772	0.693	0.884	0.696	0.621	0.47	0.438	0.623	0.862	0.589	0.523	0.51
NCI-H1734	0.563	0.366	0.318	0.152	0.162	0.199	0.167	0.194	0.151	0.183	0.762	0.554	0.378	0.226	0.23	0.234	0.26	0.23	0.194	0.196
NCI-H1755	0.414	0.32	0.262	0.263	0.249	0.43	0.417	0.361	0.263	0.251	0.879	0.744	0.607	0.378	0.363	0.551	0.555	0.449	0.429	0.437
NCI-H1793	0.356	0.178	0.192	0.148	0.11	0.151	0.156	0.146	0.132	0.149	0.605	0.347	0.224	0.175	0.17	0.299	0.219	0.154	0.136	0.145
NCI-H1915	0.27	0.297	0.281	0.177	0.174	0.777	0.727	0.598	0.5	0.322	1.12	0.941	0.996	0.645	0.455	0.533	0.433	0.46	0.387	0.35
NCI-H1944	0.187	0.174	0.185	0.166	0.152	0.866	0.573	0.483	0.277	0.222	0.716	0.63	0.543	0.366	0.25	0.243	0.253	0.206	0.171	0.166
NCI-H1975	0.34	0.265	0.129	0.132	0.135	0.2	0.155	0.186	0.149	0.147	0.454	0.365	0.259	0.249	0.231	0.804	0.619	0.375	0.189	0.178
NCI-H1993	0.528	0.448	0.505	0.524	0.542	0.74	0.593	0.497	0.402	0.471	0.679	0.629	0.632	0.623	0.638	0.55	0.534	0.518	0.47	0.526
NCI-H2009	0.301	0.245	0.232	0.175	0.184	1.07	1.07	1.16	0.887	0.378	1.14	1.03	0.931	0.583	0.401	0.763	0.735	0.723	0.535	0.279
NCI-H2023	0.568	0.358	0.166	0.0954	0.103	0.591	0.411	0.138	0.1	0.128	0.439	0.431	0.311	0.141	0.141	0.314	0.325	0.258	0.115	0.109
NCI-H2085	0.205	0.201	0.199	0.217	0.195	0.447	0.387	0.294	0.21	0.281	0.896	0.758	0.575	0.382	0.372	0.775	0.759	0.703	0.388	0.338
NCI-H2087	0.957	0.637	0.792	0.292	0.216	0.171	0.163	0.138	0.124	0.141	0.996	0.924	0.809	0.44	0.381	0.276	0.242	0.2	0.189	0.162
